Measurements published in patent publication US8722901B2, “Carboxy oxazole or thiazole compounds as DGAT-1 inhibitors useful for the treatment of obesity” (Piramal Enterprises Limited, priority 2009, dated 2014).

Experiments:
hDGAT-1 = molecular target: T1, hDGAT-1 (Homo sapiens, UniProt O75907); assay: In-vitro DGAT-1 assay (14C oleoyl CoA, microsomes from Sf9 cells); assay type: biochemical; settings: 1 μM compound; hDGAT-1 containing microsomes from Sf9 cells
T1 construct: host or cells: Sf9 insect cells (baculovirus); microsomal fraction
T1 sequence (O75907 1-488): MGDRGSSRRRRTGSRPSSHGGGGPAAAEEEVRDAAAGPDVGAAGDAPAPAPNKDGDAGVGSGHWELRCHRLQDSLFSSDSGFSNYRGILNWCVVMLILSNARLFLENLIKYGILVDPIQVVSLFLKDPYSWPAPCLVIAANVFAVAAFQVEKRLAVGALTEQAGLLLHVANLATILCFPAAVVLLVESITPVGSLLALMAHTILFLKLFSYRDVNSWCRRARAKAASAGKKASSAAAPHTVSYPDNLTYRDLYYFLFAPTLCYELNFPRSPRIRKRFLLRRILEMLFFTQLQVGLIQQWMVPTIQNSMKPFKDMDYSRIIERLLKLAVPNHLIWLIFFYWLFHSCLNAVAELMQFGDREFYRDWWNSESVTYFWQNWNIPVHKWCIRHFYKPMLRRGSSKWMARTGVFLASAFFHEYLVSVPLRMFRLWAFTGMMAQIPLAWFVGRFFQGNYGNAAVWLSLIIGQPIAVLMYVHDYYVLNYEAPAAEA
Description: In-Vitro Protocol for DGAT-1 Assay
Sf9 Culture and Treatment
Sf9 cells were grown in T25 flasks containing Graces's Insect media (Invitrogen, US) with 10% FBS (Hyclone, US) with antibiotic (100 units/mL penicillin, 100 μg/mL streptomycin sulphate, 0.25 μg/mL amphotericin B as Fungizone) grown in a 27° C. incubator.
hDGAT-10RF expression clone (RZPDo839C09146 in pDEST vector) was obtained from RZPD, Germany. hDGAT-1 bacmid DNA was obtained by transformation of the hDGAT expression clone into DH10Bac E. coli competent cells. Approximately 1 μg of hDGAT-1 bacmid DNA was infected into Sf9 cells with Cellfectin (Invitrogen, US) reagent. Following infection, Sf9 cells were incubated at 27° C. for 30 minutes. Five hours after infection, the media was replaced with growth media containing antibiotic (100 units/mL penicillin, 100 μg/mL streptomycin sulphate, 0.25 μg/mL amphotericin B as Fungizone) and incubated at 27° C. for 72 hours. The supernatant containing the virus was centrifuged at 1500 g for 5 minutes, passed through 0.22 μm filter, and subsequently stored at 4° C. The virus was further amplified three more times by re-infection of Sf9 cells and the viral titer was determined by plaque assay.
Preparation of DGAT-1 Microsomes from Sf9 Cells
Sf9 cells were seeded in spinner flasks on day 0 at a cell density of 1×10^6 and infected on day 1 with hDGAT-1 baculovirus at a multiplicity of infection (MOI) of 5 and a cell density of 2×10^6. On day 3 (or 66-72 hours), cells were harvested and centrifuged at 2500 g for 10 minutes. Pellet was resuspended in lysis buffer (100 mM sucrose, 50 mM KCl, 40 mM KH2PO4, 30 mM EDTA, pH 7.2) and passed through 21-gauge needle approximately 10 times. […] The supernatant was subjected to centrifugation at 35,000 rpm in a Beckman Ti-45 rotor at 4° C. for 1 hour. The resultant pellet containing the microsomes were resuspended overnight in 1 mL of lysis buffer and total protein concentration was estimated using Bradford Reagent (Sigma, US). Microsomes were aliquoted and stored at −80° C.
Measurement of DGAT-1 Activity
Frozen aliquots of hDGAT-1 containing microsomes were thawed (5-10 mg/mL total protein) on ice and diluted to a working stock of 1 mg/mL with DGAT Assay Buffer (DAB).
The assay was performed in duplicates in a reaction volume of 100 μL. […] Procedure:
The reaction was started by the addition of […] of 1 mg/mL of microsomes (iv) to the mixture and incubated at 37° C. for 10 minutes. […] The mixture was vortexed and the triglycerides formed were extracted into the organic heptane phase.

Swiss mice = assay: Fat tolerance test (ftt) in mice; assay type: in vivo; settings: 3 mg/kg p.o., olive oil load 10 ml/kg p.o., reduction in AUC0-4h, vehicle group as 100%
Description: Study Protocol for Screening of Compounds for Fat Tolerance Test (ftt) in Mice
Swiss mice of age 4-5 weeks and body weight between 25-30 g were selected for study. After overnight fasting, animals were divided into three groups based on plasma triglyceride level with same mean and variation Animals were administered with either vehicle (1% Tween 80 in 0.5% carboxy methylcellulose) or with compounds of the present invention (3 mg/kg, p.o.). Compounds of the present invention were prepared as suspension in 0.5% carboxy methylcellulose (CMC) with 1% Tween 80. 30 minutes after the treatment, olive oil load (10 ml/kg, p.o.) was given. Blood samples were collected at 1, 2, 3 and 4 h after the fat (olive oil) load. Plasma was separated and triglyceride level was measured using commercially available kits (Diasys, Germany). Percentage reduction in area under curve (AUC0-4h) of the test compound was calculated by taking AUC0-4h of the vehicle group as 100%.

| Molecule | % inhibition of hDGAT-1 at 1 μM (hDGAT-1) | % Reduction (Plasma triglyceride) (Swiss mice) | inhibition at 1 µM (hDGAT-1) [%] |
| --- | --- | --- | --- |
| 2-(5-(4-(3-(3,4-dimethylphenyl)ureido)phenyl)oxazole-2-carboxamido)-3-methylbutanoic acid [Example 14] | ++ (>50% Inhibition ≦100) | ++ (>50% Reduction ≦100) |  |
| CC(C)C(NC(=O)c1ncc(-c2ccc(NC(=O)Nc3ccc(Cl)cc3Oc3ccccc3)cc2)s1)C(=O)O (stereo not shown) [Example 18, 2-(5-(4-(3-(4-chloro-2-phenoxyphenyl)ureido)phenyl)thiazole-2-carboxamido)-3-methylbutanoic acid] |  | ++ (>50% Reduction ≦100) |  |
| CC(C)C(NC(=O)c1ncc(-c2ccc(NC(=O)Nc3cccc(C(F)(F)F)c3)cc2)s1)C(=O)O (stereo not shown) [Example 10, 3-methyl-2-(5-(4-(3-(3-(trifluoromethyl)phenyl)ureido)phenyl)thiazole-2-carboxamido)butanoic acid] |  | ++ (>50% Reduction ≦100) |  |
| CC(C)C(NC(=O)c1ncc(-c2ccc(NC(=O)Nc3ccccc3Cl)cc2)o1)C(=O)O (stereo not shown) [Example 4, 2-(5-(4-(3-(2-Chlorophenyl)ureido)phenyl)oxazole-2-carboxamido)-3-methylbutanoic acid] |  | + (>0% Reduction ≦50) | 50 to 100 |
| CC(C)C(NC(=O)c1ncc(-c2ccc(Nc3nc4ccc(F)cc4s3)cc2)s1)C(=O)O (stereo not shown) [Example 20, 2-(5-(4-(6-fluorobenzo[d]thiazol-2-ylamino)phenyl)thiazole-2-carboxamido)-3-methylbutanoic acid] |  | ++ (>50% Reduction ≦100) |  |
| CC(C)C(NC(=O)c1ncc(-c2ccc(NC(=O)Nc3ccccc3Oc3ccccc3)cc2)s1)C(=O)O (stereo not shown) [Example 16, 3-methyl-2-(5-(4-(3-(2-phenoxyphenyl)ureido)phenyl)thiazole-2-carboxamido)butanoic acid] |  | ++ (>50% Reduction ≦100) |  |
| CC(C)C(NC(=O)c1ncc(-c2ccc(NC(=O)c3ccc(C(C)(C)C)cc3)cc2)s1)C(=O)O (stereo not shown) [Example 22, 2-(5-(4-(4-tert-butylbenzamido)phenyl)thiazole-2-carboxamido)-3-methylbutanoic acid] |  | ++ (>50% Reduction ≦100) |  |
| CC(C)C(NC(=O)c1ncc(-c2ccc(NC(=O)Nc3ccccc3Cl)cc2)s1)C(=O)O (stereo not shown) [Example 12, 2-(5-(4-(3-(2-Chlorophenyl)ureido)phenyl)thiazole-2-carboxamido)-3-methylbutanoic acid] |  | ++ (>50% Reduction ≦100) |  |
